PubChem BioAssay (NCI)
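Assay format: 96-well plates, 48-hour exposure. Definition used: TGI = concentration required for complete inhibition of growth.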

Columns and labels:
Assay in all cases: NCI anticancer screen, dose series, 48 h
BT-549 breast = system: BT-549 breast
UACC-257 melanoma = system: UACC-257 melanoma
MDA-N = system: MDA-N
HOP-62 NSCLC = system: HOP-62 NSCLC
SF-539 CNS = system: SF-539 CNS
M14 melanoma = system: M14 melanoma
SN12C renal = system: SN12C renal
SK-MEL-2 melanoma = system: SK-MEL-2 melanoma
HOP-92 NSCLC = system: HOP-92 NSCLC
NCI/ADR-RES ovarian = system: NCI/ADR-RES ovarian
EKVX NSCLC = system: EKVX NSCLC
OVCAR-3 ovarian = system: OVCAR-3 ovarian
SK-MEL-5 melanoma = system: SK-MEL-5 melanoma
K-562 leukemia = system: K-562 leukemia
ACHN renal = system: ACHN renal
A498 renal = system: A498 renal
NCI-H226 lung = system: NCI-H226 lung
MDA-MB-231 breast = system: MDA-MB-231 breast
HCC-2998 colon = system: HCC-2998 colon
SK-MEL-28 melanoma = system: SK-MEL-28 melanoma
NCI-H522 lung = system: NCI-H522 lung
NCI-H23 lung = system: NCI-H23 lung
COLO 205 colon = system: COLO 205 colon
U251 CNS = system: U251 CNS
SF-268 CNS = system: SF-268 CNS
SK-OV-3 ovarian = system: SK-OV-3 ovarian
IGROV1 ovarian = system: IGROV1 ovarian
OVCAR-8 ovarian = system: OVCAR-8 ovarian
MCF7 breast = system: MCF7 breast
MOLT-4 leukemia = system: MOLT-4 leukemia
HCT-15 colon = system: HCT-15 colon
PC-3 prostate = system: PC-3 prostate
HL-60(TB) leukemia = system: HL-60(TB) leukemia
SF-295 CNS = system: SF-295 CNS
CCRF-CEM leukemia = system: CCRF-CEM leukemia
SNB-75 CNS = system: SNB-75 CNS
SR leukemia = system: SR leukemia
DU-145 prostate = system: DU-145 prostate
A549 NSCLC = system: A549 NSCLC
SNB-19 CNS = system: SNB-19 CNS
HS 578T breast = system: HS 578T breast
NCI-H460 lung = system: NCI-H460 lung
UACC-62 melanoma = system: UACC-62 melanoma
SW-620 colon = system: SW-620 colon
OVCAR-4 ovarian = system: OVCAR-4 ovarian
OVCAR-5 ovarian = system: OVCAR-5 ovarian
TK-10 renal = system: TK-10 renal
MDA-MB-435 = system: MDA-MB-435
CAKI-1 renal = system: CAKI-1 renal
HCT-116 colon = system: HCT-116 colon
T-47D breast = system: T-47D breast
LOX IMVI melanoma = system: LOX IMVI melanoma
MALME-3M melanoma = system: MALME-3M melanoma
RXF 393 renal = system: RXF 393 renal
786-0 renal = system: 786-0 renal
HT29 colon = system: HT29 colon
KM12 colon = system: KM12 colon
RPMI-8226 leukemia = system: RPMI-8226 leukemia
UO-31 renal = system: UO-31 renal

Compound: Cc1ccc2c(=O)c3c(O)c4c(cc3n(C)c2c1)OC(C)(C)C=C4
- TGI (BT-549 breast): > 10 µM
- TGI (UACC-257 melanoma): > 10 µM
- TGI (MDA-N): > 10 µM
- TGI (HOP-62 NSCLC): > 10 µM
- TGI (SF-539 CNS): > 10 µM
- TGI (M14 melanoma): > 10 µM
- TGI (SN12C renal): > 10 µM
- TGI (SK-MEL-2 melanoma): > 10 µM
- TGI (HOP-92 NSCLC): > 10 µM
- TGI (NCI/ADR-RES ovarian): > 10 µM
- TGI (EKVX NSCLC): > 10 µM
- TGI (OVCAR-3 ovarian): > 10 µM
- TGI (SK-MEL-5 melanoma): > 10 µM
- TGI (K-562 leukemia): > 10 µM
- TGI (ACHN renal): > 10 µM
- TGI (A498 renal): > 10 µM
- TGI (NCI-H226 lung): > 10 µM
- TGI (MDA-MB-231 breast): > 10 µM
- TGI (HCC-2998 colon): > 10 µM
- TGI (SK-MEL-28 melanoma): > 10 µM
- TGI (NCI-H522 lung): > 10 µM
- TGI (NCI-H23 lung): > 10 µM
- TGI (COLO 205 colon): > 10 µM
- TGI (U251 CNS): > 10 µM
- TGI (SF-268 CNS): > 10 µM
- TGI (SK-OV-3 ovarian): > 10 µM
- TGI (IGROV1 ovarian): > 10 µM
- TGI (OVCAR-8 ovarian): > 10 µM
- TGI (MCF7 breast): > 10 µM
- TGI (MOLT-4 leukemia): > 10 µM
- TGI (HCT-15 colon): > 10 µM
- TGI (PC-3 prostate): > 10 µM
- TGI (HL-60(TB) leukemia): > 10 µM
- TGI (SF-295 CNS): > 10 µM
- TGI (CCRF-CEM leukemia): > 10 µM
- TGI (SNB-75 CNS): > 10 µM
- TGI (SR leukemia): > 10 µM
- TGI (DU-145 prostate): > 10 µM
- TGI (A549 NSCLC): > 10 µM
- TGI (SNB-19 CNS): > 10 µM
- TGI (HS 578T breast): > 10 µM
- TGI (NCI-H460 lung): > 10 µM
- TGI (UACC-62 melanoma): > 10 µM
- TGI (SW-620 colon): > 10 µM
- TGI (OVCAR-4 ovarian): > 10 µM
- TGI (OVCAR-5 ovarian): > 10 µM
- TGI (TK-10 renal): > 10 µM
- TGI (MDA-MB-435): > 10 µM
- TGI (CAKI-1 renal): > 10 µM
- TGI (HCT-116 colon): > 10 µM
- TGI (T-47D breast): > 10 µM
- TGI (LOX IMVI melanoma): > 10 µM
- TGI (MALME-3M melanoma): > 10 µM
- TGI (RXF 393 renal): > 10 µM
- TGI (786-0 renal): > 10 µM
- TGI (HT29 colon): > 10 µM
- TGI (KM12 colon): > 10 µM
- TGI (RPMI-8226 leukemia): > 10 µM

Compound: CCCCCCCCCCCOCCC1C(C(C)OCCN2CCCC2)OC2OC(C)(C)OC21 (stereo unspecified)
- TGI (BT-549 breast): 7.76 µM
- TGI (UACC-257 melanoma): 3.78 µM
- TGI (MDA-N): 3.52 µM
- TGI (HOP-62 NSCLC): 4.38 µM
- TGI (SF-539 CNS): 3.68 µM
- TGI (M14 melanoma): 1.01 µM
- TGI (SN12C renal): 7.31 µM
- TGI (SK-MEL-2 melanoma): 3.51 µM
- TGI (HOP-92 NSCLC): 4.75 µM
- TGI (NCI/ADR-RES ovarian): 19.6 µM
- TGI (EKVX NSCLC): 10.8 µM
- TGI (OVCAR-3 ovarian): 12.3 µM
- TGI (SK-MEL-5 melanoma): 3.22 µM
- TGI (ACHN renal): 10.8 µM
- TGI (A498 renal): 28.5 µM
- TGI (NCI-H226 lung): 24.5 µM
- TGI (MDA-MB-231 breast): 3.97 µM
- TGI (HCC-2998 colon): 4.83 µM
- TGI (SK-MEL-28 melanoma): 3.08 µM
- TGI (NCI-H522 lung): 1.05 µM
- TGI (NCI-H23 lung): 11 µM
- TGI (COLO 205 colon): 3.88 µM
- TGI (U251 CNS): 5.72 µM
- TGI (SF-268 CNS): 16 µM
- TGI (SK-OV-3 ovarian): 8.96 µM
- TGI (IGROV1 ovarian): 6.59 µM
- TGI (OVCAR-8 ovarian): 11.3 µM
- TGI (MCF7 breast): 6.58 µM
- TGI (MOLT-4 leukemia): 5.93 µM
- TGI (HCT-15 colon): 4.35 µM
- TGI (PC-3 prostate): 6.05 µM
- TGI (HL-60(TB) leukemia): 3.36 µM
- TGI (SF-295 CNS): 5.71 µM
- TGI (CCRF-CEM leukemia): > 23.9 µM
- TGI (SNB-75 CNS): 7.07 µM
- TGI (SR leukemia): 1.83 µM
- TGI (UO-31 renal): 6.51 µM
- TGI (DU-145 prostate): 11.3 µM
- TGI (A549 NSCLC): 11.5 µM
- TGI (SNB-19 CNS): 13.7 µM
- TGI (HS 578T breast): 6.93 µM
- TGI (NCI-H460 lung): 5.05 µM
- TGI (UACC-62 melanoma): 3.28 µM
- TGI (SW-620 colon): 3.55 µM
- TGI (OVCAR-4 ovarian): 22.3 µM
- TGI (OVCAR-5 ovarian): 8.94 µM
- TGI (TK-10 renal): 6.6 µM
- TGI (MDA-MB-435): 3.51 µM
- TGI (CAKI-1 renal): 6.52 µM
- TGI (HCT-116 colon): 3.38 µM
- TGI (T-47D breast): 4.8 µM
- TGI (LOX IMVI melanoma): 2.93 µM
- TGI (MALME-3M melanoma): 3.08 µM
- TGI (RXF 393 renal): 7.3 µM
- TGI (786-0 renal): 5.88 µM
- TGI (HT29 colon): 3.5 µM
- TGI (KM12 colon): 1.78 µM
- TGI (RPMI-8226 leukemia): 3.17 µM
